Earlier results as cited in US20100075916A1, “SUBSTITUTED QUINAZOLINE INHIBITORS OF GROWTH FACTOR RECEPTOR TYROSINE KINASES” (AUSPEX PHARMACEUTICALS, INC., priority 2008, published 2010).

What was measured:
[1] = vandetanib administration
[2] = humans

COc1cc2c(Nc3ccc(Br)cc3F)ncnc2cc1OCC1CCN(C)CC1 [Vandetanib, N-(4-bromo-2-fluoro-phenyl)-6-methoxy-7-[(1-methyl-4-piperidyl)methoxy]quinazolin-4-amine]
common side effects [1]: rash, diarrhea, QTc prolongation, hypertension, and neutropenia
elimination halflife [2]: approximately 120 hours
volume of distribution [2]: large volume of distribution
lag time before the drug is detectable in plasma ([2]; after oral administration): 0.801 h
Ka (absorption) ([2]; oral administration): 0.476 h⁻¹
